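Five compound concentrations were applied to cells in 96-well plates for 48 hours; endpoints were derived by simple linear interpolation of the resulting dose-response curve. GI50: concentration for 50% inhibition of growth. TGI is the concentration that stops growth completely.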
How the values were obtained:
Test in all cases: NCI-60 cell line screen, 48 h
786-0 renal = tested on: 786-0 renal
DU-145 prostate = tested on: DU-145 prostate
NCI/ADR-RES ovarian = tested on: NCI/ADR-RES ovarian
SR leukemia = tested on: SR leukemia
IGROV1 ovarian = tested on: IGROV1 ovarian
ACHN renal = tested on: ACHN renal
LOX IMVI melanoma = tested on: LOX IMVI melanoma
SF-295 CNS = tested on: SF-295 CNS

Compound	TGI (786-0 renal)	TGI (DU-145 prostate)	TGI (NCI/ADR-RES ovarian)	TGI (SR leukemia)	TGI (IGROV1 ovarian)	TGI (ACHN renal)	TGI (LOX IMVI melanoma)	TGI (SF-295 CNS)	GI50 (786-0 renal)	GI50 (DU-145 prostate)	GI50 (NCI/ADR-RES ovarian)	GI50 (IGROV1 ovarian)	GI50 (ACHN renal)	GI50 (LOX IMVI melanoma)	GI50 (SF-295 CNS)	GI50 (SR leukemia)
OC(COC(c1ccccc1)(c1ccccc1)c1ccccc1)C(O)CC1SCCS1 (stereo unspecified)	39.7 µM	41.5 µM	52.9 µM	0.953 µM	30.5 µM	38.3 µM	32 µM									
O=C(CCCN1CCC(O)(c2ccc(Cl)cc2)CC1)c1ccc(F)cc1	39.8 µM	> 100 µM	88.8 µM	> 100 µM	> 100 µM	> 100 µM	33.1 µM	31.5 µM								
COc1ccc(/C(COc2ccc3oc(-c4ccccc4)cc(=O)c3c2)=N\O)cc1	> 35.6 µM	13.4 µM	5.51 µM	> 50 µM	> 50 µM	20 µM	2.69 µM	0.154 µM	0.855 µM	2.27 µM	0.11 µM	< 0.005 µM	0.331 µM	0.0322 µM	< 0.005 µM	
COc1cc(Nc2ncc(-c3ccccc3)o2)cc(OC)c1	> 25 µM	> 25 µM	> 25 µM	> 25 µM	> 25 µM	> 25 µM	> 25 µM	> 25 µM	> 25 µM	> 25 µM	> 25 µM	> 25 µM	17.4 µM	> 25 µM	> 25 µM	> 17.7 µM
Cc1ccccc1NC(=O)c1sc2nc(C)c(C(=O)/C=C/c3ccccc3)cc2c1N	1.77 µM	4.28 µM	> 50 µM	> 50 µM	2.08 µM	1.86 µM	1.62 µM	16.8 µM	0.82 µM	1.34 µM	1.5 µM	0.953 µM	0.927 µM	0.864 µM	2.43 µM	1.13 µM
CC1(C)CNc2cc(NC(=O)c3cccnc3NCc3ccncc3)ccc21	> 100 µM	> 100 µM	> 100 µM	> 100 µM	> 84.2 µM	> 100 µM	> 100 µM	> 100 µM	45.1 µM	23 µM	25.1 µM	19.9 µM	10.6 µM	23.3 µM	24.2 µM	26.1 µM
CNC(=O)c1c(NC(=O)c2ccc(C(C)(C)C)cc2)sc2c1CCC(=O)C2	1.83 µM	3.68 µM	1.29 µM		1.64 µM	0.922 µM	1.31 µM	1.35 µM	0.434 µM	1.44 µM	0.313 µM	0.373 µM	0.203 µM	0.19 µM	0.334 µM	0.107 µM
CCCCCCCCCCCCCC[N+](C)(C)CCCCCCCCCCCCCC	4.92 µM	12.5 µM	63.4 µM	9.96 µM		6.85 µM		37.7 µM	2.02 µM	3.42 µM	7.42 µM		2.62 µM		7.72 µM	2.46 µM
COc1ccc2c(c1OC)CO[C@@H]2[C@H]1c2c(cc3c(c2OC)OCO3)CCN1S(=O)(=O)c1cn(C)cn1	> 100 µM	12 µM	8.35 µM	> 100 µM	> 100 µM	> 100 µM	> 100 µM	> 100 µM	0.968 µM	2.77 µM	1.97 µM	1.45 µM	1.73 µM	4.48 µM	1.18 µM	0.902 µM
CNC(=O)c1c(NC(=O)c2ccc(C(C)(C)C)cc2)sc2c(CN(C)C)c(O)ccc12	3.3 µM			3.5 µM			2.38 µM	3.56 µM	1.74 µM					1.13 µM	1.86 µM	0.99 µM
CC1CC[P+](c2ccccc2)(c2ccccc2)c2c1ccc1ccccc21 (stereo unspecified)	43.4 µM	> 100 µM	> 100 µM	> 100 µM	21.2 µM	> 81.5 µM	7.61 µM	20.3 µM	11 µM	13.3 µM		4.42 µM				9.65 µM
CC(N)(Cc1c[nH]c2cccc(F)c12)C(=O)O (stereo unspecified)	> 1000 µM	> 1000 µM	> 1000 µM	> 1000 µM	> 1000 µM	> 1000 µM	> 1000 µM	> 1000 µM	> 1000 µM	> 1000 µM	> 1000 µM	364 µM	> 1000 µM	> 1000 µM	> 1000 µM	> 1000 µM
COc1cc(/C=N/Nc2ncnc3c2cnn3-c2ccccc2)ccc1O	> 25 µM	> 25 µM	> 25 µM	> 25 µM	> 22.8 µM	> 25 µM	> 25 µM	> 25 µM	> 16.2 µM	> 19.6 µM	> 20.9 µM	5.03 µM	7.93 µM	10.3 µM	> 15.5 µM	6.09 µM
COc1ccc(CN2c3ccccc3Sc3ccccc32)c(C(F)(F)F)c1	> 100 µM	> 100 µM	3.16 µM	> 100 µM	> 100 µM	> 100 µM	33.3 µM	2.67 µM	9.05 µM	2.08 µM	0.462 µM	3.43 µM	0.666 µM	0.832 µM	0.32 µM	0.483 µM
CCOCCCn1c2c(c3c(O)cccc31)C(=O)c1ccccc1-2	51.9 µM	> 100 µM	56.5 µM	27.7 µM	48.7 µM	55 µM	32.7 µM	55.3 µM	22 µM	33.3 µM	20.8 µM	17.1 µM	20.6 µM	17.2 µM	21.4 µM	10.6 µM
COc1cccc(CC(C)=C(c2ccc(OCCN3CCCCC3)cc2)c2ccc(OCCN3CCCCC3)cc2)c1	3.89 µM	4.26 µM	4.34 µM	1.2 µM	3.99 µM	4.07 µM	3.52 µM	4.82 µM	1.87 µM	2.11 µM	2.1 µM	1.89 µM	2.16 µM	1.64 µM	2.42 µM	0.392 µM
